Patent US20220033407A1, “N-(pyridin-2-ylsulfonyl)cyclopropanecarboxamide Derivatives and their Use in the Treatment of Disease” (NOVARTIS AG, priority 2018, published 2022)

Tests used:
[1] = target: T1, delF508-CFTR-HRP (Homo sapiens, UniProt P13569, DEL508-508); assay: Measurement of delF508-CFTR-HRP surface expression in CFBE41o- cells (HRP luminescence); assay type: cell-based; details: for EC50: mean of at least two replicates; for Emax: CFBE41o-, read-out: DelF508-CFTR-HRP Amax %;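 for DelF508-CFTR-HRP Amax %: percent efficacy relative to a reference CFTR corrector compound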
T1 construct: expressed in transfected cells
T1 sequence (P13569 with tags, fused parts or gaps DEL508-508): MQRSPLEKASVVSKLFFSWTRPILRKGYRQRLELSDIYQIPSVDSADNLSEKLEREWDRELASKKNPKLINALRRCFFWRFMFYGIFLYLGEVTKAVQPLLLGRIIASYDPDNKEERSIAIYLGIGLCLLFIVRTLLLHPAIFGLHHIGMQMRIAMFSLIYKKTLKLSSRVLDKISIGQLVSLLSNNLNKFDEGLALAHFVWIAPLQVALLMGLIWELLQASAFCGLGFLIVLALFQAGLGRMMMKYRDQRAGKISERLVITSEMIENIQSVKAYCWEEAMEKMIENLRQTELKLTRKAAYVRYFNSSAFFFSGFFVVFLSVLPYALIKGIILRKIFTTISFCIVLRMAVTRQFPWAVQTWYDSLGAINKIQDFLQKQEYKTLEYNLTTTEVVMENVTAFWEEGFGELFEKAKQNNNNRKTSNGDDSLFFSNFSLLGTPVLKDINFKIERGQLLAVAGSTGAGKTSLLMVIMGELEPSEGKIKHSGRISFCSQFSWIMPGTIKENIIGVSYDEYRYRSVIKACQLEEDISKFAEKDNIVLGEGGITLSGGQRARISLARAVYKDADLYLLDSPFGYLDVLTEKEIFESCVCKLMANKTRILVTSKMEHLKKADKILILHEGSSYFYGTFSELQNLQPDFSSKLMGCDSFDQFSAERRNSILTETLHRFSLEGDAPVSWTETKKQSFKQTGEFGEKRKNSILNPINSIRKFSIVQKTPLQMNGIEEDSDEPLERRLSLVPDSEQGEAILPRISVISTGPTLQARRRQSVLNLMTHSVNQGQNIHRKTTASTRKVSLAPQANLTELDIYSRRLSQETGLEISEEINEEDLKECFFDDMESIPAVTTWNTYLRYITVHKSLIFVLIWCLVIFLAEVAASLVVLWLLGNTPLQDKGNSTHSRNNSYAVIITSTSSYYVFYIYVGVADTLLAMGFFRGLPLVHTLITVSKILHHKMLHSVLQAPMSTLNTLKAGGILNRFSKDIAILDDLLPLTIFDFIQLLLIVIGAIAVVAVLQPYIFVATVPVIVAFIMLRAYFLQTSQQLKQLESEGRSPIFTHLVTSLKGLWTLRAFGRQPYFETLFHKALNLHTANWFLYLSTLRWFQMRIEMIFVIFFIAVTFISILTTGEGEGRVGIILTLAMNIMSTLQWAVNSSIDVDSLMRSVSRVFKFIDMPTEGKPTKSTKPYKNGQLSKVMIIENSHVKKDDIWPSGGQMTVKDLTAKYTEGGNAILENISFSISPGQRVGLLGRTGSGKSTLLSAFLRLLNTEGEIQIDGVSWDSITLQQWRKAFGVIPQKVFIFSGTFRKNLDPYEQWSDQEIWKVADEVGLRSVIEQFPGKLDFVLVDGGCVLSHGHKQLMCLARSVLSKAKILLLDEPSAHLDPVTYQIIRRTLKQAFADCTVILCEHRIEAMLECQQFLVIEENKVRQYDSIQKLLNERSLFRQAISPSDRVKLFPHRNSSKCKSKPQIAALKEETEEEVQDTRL
Summary of the method: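 EC50 derived by logistic regression of triplicate surface-HRP luminescence, plate-normalized to the lowest-concentration median. Doxycycline (500 ng/mL, 48 h) induced delF508-CFTR-HRP in CFBE41o- cells; compounds then applied 24 h at 37° C, 10 μM top, 3-fold over 10 points.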

[2] = target: T2, delF508-CFTR (Homo sapiens, UniProt P13569, DEL508-508); assay: delF508-CFTR functional activity in primary human bronchial epithelial cells (HBECs), Multi-Transepithelial Clamp Circuit (MTECC-24) assay, equivalent short circuit current; assay type: cell-based; details: primary CF HBECs; for MTECC24 CFHBEC-Amax %: relative to reference combination 2 μM 3-(6-(1-(2,2-difluorobenzo[d][1,3]dioxol-5-yl)cyclopropane-1-carboxamido)-3-methylpyridin-2-yl)benzoic acid (24 h) + 0.5 μM N-(2,4-di-tert-butyl-5-hydroxyphenyl)-4-oxo-1,4-dihydroquinoline-3-carboxamide; for EC50: test compound added 24 h before assay, potentiator (S)-3-amino-6-methoxy-N-(3,3,3-trifluoro-2-hydroxy-2-methylpropyl)-5-(trifluoromethyl)picolinamide present at assay, mean of at least two replicates, read-out: MTECC24 CFHBEC-EC50
T2 construct: functional activity of the CFTR channel (Chloride ion transport) in patient derived primary human bronchial epithelial cells; host or cells: patient-derived primary human bronchial epithelial cells (HBECs), delF508-CFTR
T2 sequence (P13569 with tags, fused parts or gaps DEL508-508): as above
Summary of the method: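 Compound acted as corrector on differentiated primary delF508-CFTR bronchial cultures, first 24 h basolaterally, then 45 min both sides before reading. Equivalent short circuit current was recorded during sequential forskolin and potentiator addition. EC50 came from 10-point, 1-in-3 dilution curves against the 0.1% DMSO baseline.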

Compound	EC50 [1] [nM]	MTECC24 CFHBEC-Amax % [2] [%]	EC50 [2] [nM]	Emax [1] [%]
CC1(C)CCN(c2ccc(Cl)cc2OC2(C(=O)NS(=O)(=O)c3cccc(N4CC[C@H](O)C4)n3)CC2)CC1 [Example 8-1, (S)-1-(5-Chloro-2-(4,4-dimethylpiperidin-1-yl)phenoxy)-N-((6-(3-hydroxypyrrolidin-1-yl)pyridin-2-yl)sulfonyl)cyclopropane-1-carboxamide]	1740	197.2	373	
O=C(NS(=O)(=O)c1cccc(N2CC[C@H](O)C2)n1)C1(Oc2cc(Cl)ccc2N2CC3(CCCCC3)C2)CC1 [Example 9-1, (S)-1-(5-chloro-2-(2-azaspiro[3.5]nonan-2-yl)phenoxy)-N-((6-(3-hydroxypyrrolidin-1-yl)pyridin-2-yl)sulfonyl)cyclopropanecarboxamide]	1060	206.5	294	647
C[C@]1(O)CCN(c2cccc(S(=O)(=O)NC(=O)C3(Oc4cc(Cl)ccc4N4CC5(CCCCC5)C4)CC3)n2)C1 [Example 9-7, (S)-1-(5-Chloro-2-(2-azaspiro[3.5]nonan-2-yl)phenoxy)-N-((6-(3-hydroxy-3-methylpyrrolidin-1-yl)pyridin-2-yl)sulfonyl)cyclopropanecarboxamide]	580	131.1	123	472
Cc1ccc(N2CCC3(CC2)CC3)c(OC2(C(=O)NS(=O)(=O)c3cccc(N4CC[C@H](O)C4)n3)CC2)c1 [Example 9-11, (S)—N-((6-(3-Hydroxypyrrolidin-1-yl)pyridin-2-yl)sulfonyl)-1-(5-methyl-2-(6-azaspiro[2.5]octan-6-yl)phenoxy)cyclopropanecarboxamide]	1640	133.4	396	580
O=C(NS(=O)(=O)c1cccc(N2CC[C@H](O)C2)n1)C1(Oc2cc(Cl)ccc2N2CCC3(CCC3)CC2)CC1 [Example 9-12, (S)-1-(5-Chloro-2-(7-azaspiro[3.5]nonan-7-yl)phenoxy)-N-((6-(3-hydroxypyrrolidin-1-yl)pyridin-2-yl)sulfonyl)cyclopropanecarboxamide]	1330	160.7	776	579
O=C(NS(=O)(=O)c1cccc(N2CC[C@H](O)C2)n1)C1(Oc2cc(Cl)ccc2N2CCC3(CCCC3)CC2)CC1 [Example 9-13, (S)-1-(5-Chloro-2-(8-azaspiro[4.5]decan-8-yl)phenoxy)-N-((6-(3-hydroxypyrrolidin-1-yl)pyridin-2-yl)sulfonyl)cyclopropanecarboxamide]	1040	128.4	171	638
O=C(NS(=O)(=O)c1cccc(N2CC[C@H](O)C2)n1)C1(Oc2cc(Cl)ccc2N2CCC3(CCCCC3)CC2)CC1 [Example 9-14, (S)-1-(5-Chloro-2-(3-azaspiro[5.5]undecan-3-yl)phenoxy)-N-((6-(3-hydroxypyrrolidin-1-yl)pyridin-2-yl)sulfonyl)cyclopropanecarboxamide]	700	170.7	454	279
O=C(NS(=O)(=O)c1cccc(N2CC[C@H](O)C2)n1)C1(Oc2cc(Cl)ccc2N2CCC(C(F)(F)F)CC2)CC1 [Example 9-16, (S)-1-(5-Chloro-2-(4-(trifluoromethyl)piperidin-1-yl)phenoxy)-N-((6-(3-hydroxypyrrolidin-1-yl)pyridin-2-yl)sulfonyl)cyclopropanecarboxamide]	2200	138.2	865	317
O=C(NS(=O)(=O)c1cccc(N2CC[C@H](O)C2)n1)C1(Oc2cc(Cl)ccc2N2CC3CCC(C3)C2)CC1 [Example 9-18, 1-(2-(3-Azabicyclo[3.2.1]octan-3-yl)-5-chlorophenoxy)-N-((6-((S)-3-hydroxypyrrolidin-1-yl)pyridin-2-yl)sulfonyl)cyclopropanecarboxamide]	1300	148.1	548	510
O=C(NS(=O)(=O)c1cccc(N2CC[C@H](O)C2)n1)C1(Oc2cc(Cl)ccc2NC2CCC(C(F)(F)F)CC2)CC1 (stereo partly drawn) [Example 9-19, (S)-1-(5-Chloro-2-((4-(trifluoromethyl)cyclohexyl)amino)phenoxy)-N-((6-(3-hydroxypyrrolidin-1-yl)pyridin-2-yl)sulfonyl)cyclopropanecarboxamide]	2420	161.2	749	594
O=C(NS(=O)(=O)c1cccc(N2CC[C@H](O)C2)n1)C1(Oc2cc(Cl)ccc2N2CC3(CCC3)C2)CC1 [Example 9-20, (S)-1-(5-Chloro-2-(2-azaspiro[3.3]heptan-2-yl)phenoxy)-N-((6-(3-hydroxypyrrolidin-1-yl)pyridin-2-yl)sulfonyl)cyclopropanecarboxamide]	2910	98.5	832	729
O=C(NS(=O)(=O)c1cccc(N2CC[C@H](O)C2)n1)C1(Oc2cc(Cl)ccc2N2CC3(C2)CC(F)(F)C3)CC1 [Example 9-22, (S)-1-(5-Chloro-2-(6,6-difluoro-2-azaspiro[3.3]heptan-2-yl)phenoxy)-N-((6-(3-hydroxypyrrolidin-1-yl)pyridin-2-yl)sulfonyl)cyclopropanecarboxamide]	4460	82.1	1760	139
O=C(NS(=O)(=O)c1cccc(N2CC[C@H](O)C2)n1)C1(Oc2cc(Cl)ccc2N2CC3CCCC3C2)CC1 (stereo partly drawn) [Example 9-24, 1-(5-Chloro-2-(hexahydrocyclopenta[c]pyrrol-2(1H)-yl)phenoxy)-N-((6-((S)-3-hydroxypyrrolidin-1-yl)pyridin-2-yl)sulfonyl)cyclopropanecarboxamide]	2170	135.8	389	641
CC1(C)CCN(c2ccc(Cl)cc2OC2(C(=O)NS(=O)(=O)c3cccc(N4CCC(O)CC4)n3)CC2)CC1 [Example 9-41, 1-(5-Chloro-2-(4,4-dimethylpiperidin-1-yl)phenoxy)-N-((6-(4-hydroxypiperidin-1-yl)pyridin-2-yl)sulfonyl)cyclopropane-1-carboxamide]	1580	79.3	290	656
CC1(C)CCN(c2ccc(Cl)cc2OC2(C(=O)NS(=O)(=O)c3cccc(N4CCC(C)(O)CC4)n3)CC2)CC1 [Example 9-42, 1-(5-Chloro-2-(4,4-dimethylpiperidin-1-yl)phenoxy)-N-((6-(4-hydroxy-4-methylpiperidin-1-yl)pyridin-2-yl)sulfonyl)cyclopropane-1-carboxamide]	1350	93.9	138	588
CC1(C)CCN(c2ccc(Cl)cc2OC2(C(=O)NS(=O)(=O)c3cccc(N4CCC(O)(c5cccc(C(F)(F)F)c5)CC4)n3)CC2)CC1 [Example 10-2, 1-(5-chloro-2-(4,4-dimethylpiperidin-1-yl)phenoxy)-N-((6-(4-hydroxy-4-(3-(trifluoromethyl)phenyl)piperidin-1-yl)pyridin-2-yl)sulfonyl)cyclopropanecarboxamide]	460	161.6	182	746
Cc1ccc(N2CCC(C)(C)CC2)c(OC2(C(=O)NS(=O)(=O)c3cccc(N4CC[C@H](O)C4)n3)CC2)c1 [Example 10-4, (S)-1-(2-(4,4-dimethylpiperidin-1-yl)-5-methylphenoxy)-N-((6-(3-hydroxypyrrolidin-1-yl)pyridin-2-yl)sulfonyl)cyclopropanecarboxamide]	2630	103.3	482	717
CC1(C)CCN(c2ccc(Cl)cc2OC2(C(=O)NS(=O)(=O)c3cccc(N4CCC(O)(C(C)(C)C)CC4)n3)CC2)CC1 [Example 10-6, N-((6-(4-(tert-butyl)-4-hydroxypiperidin-1-yl)pyridin-2-yl)sulfonyl)-1-(5-chloro-2-(4,4-dimethylpiperidin-1-yl)phenoxy)cyclopropanecarboxamide]	750	103.9	80	462
